Read-outs that look alike come from different tables or passages of the source.
Tests used:
neurons = details: in vitro, activation of the EP2 receptors; cited from earlier work
[1] = system: C57/B6 mice exposed to TBI; assay: Silver staining for axon degeneration after TBI; type: in vivo; details: 3 weeks after TBI, 5 mg/kg twice daily started 24 hours after injury; 5 mg/kg
Protocol: 8 week old C57/B6 mice were exposed to sham-injury or TBI. Twice daily treatment with 5 mg/kg (+)-SW033291, 5 mg/kg (−)-SW033291, or vehicle was started 24 hours after injury and continued throughout the duration of the experiment. Animals were sacrificed by transcardial perfusion 3 weeks after TBI or sham-injury, and fixed brains were processed for silver staining. […] Individual mouse data points are shown on the graph. Data was analyzed using two-way repeated measures ANOVA; * p<0.05, ** p<0.01. All data is mean±SEM.

[2] = cited from earlier work

## CCCC1([C@H](O)C/C=C/[C@H]2[C@H](O)CC(=O)[C@@H]2CCCCCCC(=O)OC)CCC1 [butaprost]
neurons
  protection of neurons from amyloid peptide neurotoxicity: protected neurons from amyloid 0-peptide neurotoxicity in vitro

## CCCC[S+]([O-])c1sc2nc(-c3cccs3)cc(-c3ccccc3)c2c1N (single isomer, unassigned; (-)) [(−)-SW033291, reference compound]
[1]
  silver staining (axon degeneration): protection was not noted

## CCCCC[C@H](O)/C=C/[C@H]1[C@H](O)CC(=O)[C@@H]1C/C=C\CCCC(=O)O [PGE2, prostaglandin E2]
[2]; following intravenous injection
  half-life: less than 1 min.
[2]; in the circulatory system
  half-life: approximately 30 sec.
